Experimental data from patent publication EP4624465A1, “COMPOUND SERVING AS DDR1 KINASE INHIBITOR, AND MEDICINE” (Nippon Shinyaku Co., Ltd., priority 2022, dated 2024).
Structures can show the parent of a compound that is named as a salt.

Columns and labels:
[1] = molecular target: T1, DDR1 kinase (Homo sapiens, UniProt Q08345); test: Evaluation of DDR1 kinase inhibition in DDR1-expressing U2OS cells (type I collagen stimulation, PathHunter detection); format: cell-based; design: host or cells: U2OS; details: type I collagen 50 µg/mL stimulation, duplicate, read-out: DDR-1 IC50
Protocol: The solution was further diluted in an E-MEM medium (Fujifilm Wako Pure Chemicals, 051-07615) containing 10% fetal bovine serum (FBS, Gibco, 10270106) to 60000, 6000, 600, 60, 6, and 0.6 nM to prepare test substance solutions. 2. […] On the following day, after the plate was left at room temperature for 1 hour, a detection solution was added to the wells at […] according to the handling instructions for the PathHunter® Detection Kit (DiscoverX, 93-0001), and then incubated at room temperature for 2 hours. After the incubation, a luminescence intensity was measured by Envision (Perkin-Elmer). Tests were performed in duplicate. 3.
Target sequence in this assay (Q08345 19-913): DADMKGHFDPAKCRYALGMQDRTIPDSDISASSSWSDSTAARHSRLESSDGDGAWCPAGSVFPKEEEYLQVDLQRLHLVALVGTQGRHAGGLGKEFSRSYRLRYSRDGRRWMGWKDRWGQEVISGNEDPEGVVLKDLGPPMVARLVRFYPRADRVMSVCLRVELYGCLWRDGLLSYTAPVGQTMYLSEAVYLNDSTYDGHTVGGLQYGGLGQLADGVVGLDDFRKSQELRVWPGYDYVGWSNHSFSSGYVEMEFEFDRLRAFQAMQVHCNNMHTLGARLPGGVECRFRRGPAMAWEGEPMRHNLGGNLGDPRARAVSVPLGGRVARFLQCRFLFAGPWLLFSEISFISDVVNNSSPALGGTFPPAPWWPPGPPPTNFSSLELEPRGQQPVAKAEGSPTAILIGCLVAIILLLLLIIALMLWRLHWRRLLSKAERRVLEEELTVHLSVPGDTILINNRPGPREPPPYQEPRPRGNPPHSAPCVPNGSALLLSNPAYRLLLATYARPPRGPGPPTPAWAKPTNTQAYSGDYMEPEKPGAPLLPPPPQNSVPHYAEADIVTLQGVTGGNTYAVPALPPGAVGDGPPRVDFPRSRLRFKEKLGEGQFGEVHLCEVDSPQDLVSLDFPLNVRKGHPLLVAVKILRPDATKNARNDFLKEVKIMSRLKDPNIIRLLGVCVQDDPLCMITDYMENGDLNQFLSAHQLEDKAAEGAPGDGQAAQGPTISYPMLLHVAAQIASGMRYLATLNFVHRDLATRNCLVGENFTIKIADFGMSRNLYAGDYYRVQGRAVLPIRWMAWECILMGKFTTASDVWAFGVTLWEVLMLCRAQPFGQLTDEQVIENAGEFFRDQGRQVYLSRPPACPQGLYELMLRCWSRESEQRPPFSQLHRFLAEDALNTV

[2] = molecular target: T1, DDR1 kinase; test: Evaluation of DDR1 kinase inhibition (LANCE Ultra TR-FRET kinase assay); format: biochemical; design: purchased Carna Biosciences 08-113; details: DDR1 protein 0.5 nM, LANCE Ultra ULight-poly GAT substrate, 2 hours at room temperature, duplicate; read-out: DDR-1 IC50
Target sequence in this assay (Q08345 19-876 isoform Q08345-2 limits assumed): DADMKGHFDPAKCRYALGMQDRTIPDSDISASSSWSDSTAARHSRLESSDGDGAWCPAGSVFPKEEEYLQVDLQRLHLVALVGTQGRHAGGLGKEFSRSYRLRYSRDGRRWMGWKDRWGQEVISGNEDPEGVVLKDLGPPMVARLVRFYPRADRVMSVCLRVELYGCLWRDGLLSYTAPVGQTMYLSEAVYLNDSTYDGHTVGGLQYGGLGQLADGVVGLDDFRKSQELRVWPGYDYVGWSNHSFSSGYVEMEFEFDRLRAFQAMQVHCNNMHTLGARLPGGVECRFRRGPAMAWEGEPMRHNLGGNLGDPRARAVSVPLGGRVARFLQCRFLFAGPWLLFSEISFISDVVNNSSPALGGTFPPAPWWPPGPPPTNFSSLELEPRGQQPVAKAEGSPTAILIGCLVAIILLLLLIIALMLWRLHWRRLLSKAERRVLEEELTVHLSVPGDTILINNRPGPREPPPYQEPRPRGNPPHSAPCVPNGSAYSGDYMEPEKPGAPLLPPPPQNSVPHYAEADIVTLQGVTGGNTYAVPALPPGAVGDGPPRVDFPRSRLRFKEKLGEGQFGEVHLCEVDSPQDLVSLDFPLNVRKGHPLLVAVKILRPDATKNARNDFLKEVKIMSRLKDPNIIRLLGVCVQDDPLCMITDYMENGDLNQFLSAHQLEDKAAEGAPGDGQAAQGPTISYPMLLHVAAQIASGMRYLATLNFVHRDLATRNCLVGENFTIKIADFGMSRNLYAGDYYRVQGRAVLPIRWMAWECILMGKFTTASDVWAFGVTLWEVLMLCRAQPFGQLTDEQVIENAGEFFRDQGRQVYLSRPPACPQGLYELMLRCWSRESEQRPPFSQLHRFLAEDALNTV

| IC50 [1] | IC50 [2] | Compound |
| --- | --- | --- |
| 150 nM | 40 nM | Cc1nc(NC2CC2)sc1C(=O)N1CC(c2nn(CC(=O)N3CCC[C@H]3C(F)(F)F)c3cc(F)cc(F)c23)C1 [Compound E-99, 2-(3-{1-[2-(cyclopropylamino)-4-methyl-1,3-thiazole-5-carbonyl]azetidin-3-yl}-4,6-difluoro-1H-indazol-1-y1)-1-[(2S)-2-(trifluoromethyl)pyrrolidin-1-yl]ethan-1-one] |
| 70 nM | 6.3 nM | Nc1nccc(C(=O)N2CC(c3nn(CC(=O)N4CCC[C@H]4C(F)(F)F)c4cc(F)cc(F)c34)C2)n1 [Compound E-129, 2-{3-[1-(2-aminopyrimidine-4-carbonyl)azetidin-3-yl}-4,6-difluoro-1H-indazol-1-yl}-1-[(2S)-2-(trifluoromethyl)pyrrolidin-1-yl]ethan-1-one] |
| 800 nM | 4.4 nM | Nc1cc(C(=O)N2CC(c3nn(Cc4noc(-c5ccc(F)cc5)n4)c4cccc(F)c34)C2)ccn1 [Compound E-116, 4-[3-(4-fluoro-1-{[5-(4-fluorophenyl)-1,2,4-oxadiazol-3-yl]methyl}-1H-indazol-3-yl)azetidine-1-carbonyl]pyridin-2-amine] |
| 230 nM | 5.2 nM | Cc1c(C(=O)N2CC(c3nn(CC(=O)N4CCO[C@@H](C(F)(F)F)C4)c4ccccc34)C2)ccnc1N [Compound E-8, 2-{3-[1-(2-amino-3-methylpyridine-4-carbonyl)azetidin-3-yl]-1H-indazol-1-yl}-1-[(2R)-2-(trifluoromethyl)morpholin-4-yl]ethan-1-one] |
| 33 nM | 15 nM | O=C(c1ccnc(NC2CCC(F)(F)CC2)c1)N1CC(c2nn(CC(=O)N3CCC[C@H]3C(F)(F)F)c3cc(F)cc(F)c23)C1 [Compound E-75, 2-[3-(1-{2-[(4,4-difluorocyclohexyl)aminolpyridine-4-carbonyl}azetidin-3-yl)-4,6-difluoro-1H-indazol-1-yl]-1-[(2S)-2-(trifluoromethyl)pyrrolidin-1-yl]ethan-1-one hydrochloride] |
| 330 nM | 7.5 nM | Cc1ccc2c(n1)c(C1CN(C(=O)c3ccnc(N)c3)C1)nn2CC(=O)N1CCC[C@H]1C(F)(F)F [Compound E-12, 2-{3-[1-(2-aminopyridine-4-carbonyl)azetidin-3-yl]-5-methyl-1H-pyrazolo[4,3-b]pyridin-1-yl}-1-[(2S)-2-(trifluoromethyl)pyrrolidin-1-yl]ethan-1-one] |
| 150 nM | 3.2 nM | Nc1cc(C(=O)N2CC(c3nn(CC(=O)N4CCO[C@@H](C(F)(F)F)C4)c4cc(F)cc(F)c34)C2)c(F)cn1 [Compound E-42, 2-{3-[1-(2-amino-5-fluoropyridine-4-carbonyl)azetidin-3-yl]-4,6-difluoro-1H-indazol-1-yl)-1-[(2R)-2-(trifluoromethyl)morpholin-4-yl]ethan-1-one] |
| 19 nM | 2.5 nM | Nc1cc(C(=O)N2CC(c3nn(CC(=O)N(CC(F)(F)F)C4CC4)c4ccccc34)C2)c(F)cn1 [Compound E-251, 2-{3-[1-(2-amino-5-fluoropyridine-4-carbonyl)azetidin-3-yl]-1H-indazol-1-yl}-N-cyclopropyl-N-(2,2,2-trifluoroethyl)acetamide] |
| 84 nM | 0.9 nM | Nc1cc(C(=O)N2CC(c3nn(CC(=O)N4CCC[C@H]4C(F)(F)F)c4cccc(F)c34)C2)ccn1 [Compound E-96, 2-{3-[1-(2-aminopyridine-4-carbonyl)azetidin-3-yl]-4-fluoro-1H-indazol-1-yl}-1-[(2S)-2-(trifluoromethyl)pyrrolidin-1-yl]ethan-1-one] |
| 130 nM | 0.8 nM | Nc1cc(C(=O)N2CC(c3nn(CC(=O)N4CCO[C@H](C(F)(F)F)C4)c4cc(F)cc(F)c34)C2)ccn1 [Compound E-82, 2-{3-[1-(2-aminopyridine-4-carbonyl)azetidin-3-yl]-4,6-difluoro-1H-indazol-1-yl}-1-[(2S)-2-(trifluoromethyl)morpholin-4-yl]ethan-1-one] |
| 140 nM | 4.3 nM | CNc1cc(C(=O)N2CC(c3nn(CC(=O)NCC(F)(F)F)c4cccc(Cl)c34)C2)ccn1 [Compound E-63, 2-(4-chloro-3-{1-[2-(methylamino)pyridine-4-carbonyl]azetidin-3-yl]-1H-indazol-1-yl)-N-(2,2,2-trifluoroethyl)acetamide] |
| 3300 nM | 22 nM | Cc1ccc2c(n1)c(C1CN(C(=O)c3cc(N)ncc3F)C1)nn2CC(=O)N1CCOC(C(F)(F)F)C1 [Compound E-185, 2-{3-[1-(2-amino-5-fluoropyridine-4-carbonyl)azetidin-3-yl]-5-methyl-1H-pyrazolo(4,3-blpyridin-1-yl}-1-[{(2R)-2-(trifluoromethyl)morpholin-4-yl]ethan-1-one p-toluenesulfonate] |
| 95 nM | 9 nM | COC[C@@H]1CCCN1C(=O)Cn1nc(C2CN(C(=O)c3ccnc(N)c3)C2)c2ccccc21 [Compound E-228, 2-{3-[1-(2-aminopyridine-4-carbonyl)azetidin-3-yl}-1H-indazol-1-yl}-1-[(2S)-2-(methoxymethyl)pyrrolidin-1-yl]ethan-1-one] |
| 850 nM | 18 nM | Nc1nc(C(F)(F)F)c(C(=O)N2CC(c3nn(CC(=O)N4CCC[C@H]4C(F)(F)F)c4cc(F)cc(F)c34)C2)s1 [Compound E-139, 2-(3-{1-[2-amino-4-(trifluoromethyl)-1,3-thiazole-5-carbonyl]azetidin-3-yl}-4,6-difluoro-1H-indazol-1-yl)-1-[(2S)-2-(trifluoromethyl)pyrrolidin-1-yl]ethan-1-one] |
| 43 nM | 2.8 nM | Nc1nccc(C(=O)N2CC(c3nn(CC(=O)N4CCC[C@H]4C(F)(F)F)c4ccccc34)C2)c1F [Compound E-196, 2-{3-[1-(2-amino-3-fluoropyridine-4-carbonyl)azetidin-3-yl]-1H-indazol-1-yl}-1-[(28)-2-(trifluoromethyl)pyrrolidin-1-yl]ethan-1-one] |
| 450 nM | 17 nM | Nc1cc(C(=O)N2CC(c3nn(CC(=O)NC4CCCC4(F)F)c4ccccc34)C2)ccn1 (stereo not shown) [Compound E-225, 2-{3-[1-(2-aminopyridine-4-carbonyl)azetidin-3-yl}-1H-indazol-1-yl}-N-(2,2-difluorocyclopentyl)acetamide] |
| 13 nM | 5.6 nM | Nc1cc(C(=O)N2CC(c3nn(CC(=O)N4CCO[C@@H](C(F)(F)F)C4)c4cc(F)cc(F)c34)C2)ccn1 [Compound E-73, 2-(3-[1-(2-aminopyridine-4-carbonyl)azetidin-3-yl]-4,6-difluoro-1H-indazol-1-yl}-1-l(2R)-2-(trifluoromethyl)morpholin-4-yl]ethan-1-one hydrochloride] |
| 180 nM | 5.2 nM | Cc1nc(N)sc1C(=O)N1CC(c2nn(CC(=O)N3CCC[C@H]3C(F)(F)F)c3cc(F)cc(F)c23)C1 [Compound E-106] |
| 89 nM | 7.9 nM | CC1(C)COCCN1C(=O)Cn1nc(C2CN(C(=O)c3ccnc(N)c3)C2)c2ccccc21 [Compound E-188, 2-{3-[1-(2-aminopyridine-4-carbonyl)azetidin-3-yl]-1H-indazol-1-yl}-1-(3,3-dimethylmorpholin-4-yl)ethan-1-one] |
| 690 nM | 21 nM | O=C(Cn1nc(C2CN(C(=O)c3cc(NC4CC4)ncn3)C2)c2c(F)cc(F)cc21)NCC(F)(F)F [Compound E-31, 2-(3-{1-[6-(cyclopropylamino)pyrimidine-4-carbonyl]azetidin-3-yl}-4,6-difluoro-1H-indazol-1-yl)-N-(2,2,2-trifluoroethyl)acetamide] |
| 110 nM | 45 nM | Cc1nc(N)oc1C(=O)N1CC(c2nn(CC(=O)N3CCC[C@H]3C(F)(F)F)c3cc(F)cc(F)c23)C1 [Compound E-110, 2-{3-{1-(2-amino-4-methyl-1,3-oxazole-5-carbonyl)azetidin-3-yl}-4,6-difluoro-1H-indazol-1-yl}-1-[(2S)-2-(trifluoromethyl)pyrrolidin-1-yl]ethan-1-one] |
| 430 nM | 19 nM | CN(CC(F)(F)F)C(=O)Cn1nc(C2CN(C(=O)c3nc(N)ncc3F)C2)c2ccccc21 [Compound E-276, 2-{3-[1-(2-amino-5-fluoropyrimidine-4-carbonyl)azetidin-3-yl)-1H-indazol-1-yl}-N-methyl-N-(2,2,2-trifluoroethyl)acetamide] |
| 38 nM | 4.8 nM | CN(CC(F)F)C(=O)Cn1nc(C2CN(C(=O)c3cc(N)ncc3F)C2)c2ccccc21 [Compound E-269, 2-{3-[1-(2-amino-5-fluoropyridine-4-carbonyl)azetidin-3-yl]-1H-indazol-1-yl}-N-(2,2-difluoroethyl)-N-methylacetamide] |
| 84 nM | 56 nM | Nc1cc(C(=O)N2CC(c3nn(Cc4cn(CC5CC(F)(F)C5)nn4)c4cccc(F)c34)C2)ccn1 [Compound E-19, 4-{3-[1-({1-[(3,3-difluorocyclobutyl)methyl]-1H-1,2,3-triazol-4-yl}methyl)-4-fluoro-1H-indazol-3-yl]azetidine-1-carbonyl}pyridin-2-amine hydrochloride] |
| 61 nM | 1.5 nM | Nc1cc(C(=O)N2CCC(c3nn(CC(=O)N4CCC[C@H]4C(F)(F)F)c4cccc(F)c34)CC2)ccn1 [Compound E-81, 2-{3-[1-(2-aminopyridine-4-carbonyl)piperidin-4-yl]-4-fluoro-1H-indazol-1-yl}-1-[(28)-2-(trifluoromethyl)pyrrolidin-1-yl]ethan-1-one] |
| 110 nM | 34 nM | Nc1cc(C(=O)N2CC(c3nn(CC(=O)N4CCO[C@@H](C(F)(F)F)C4)c4cncc(F)c34)C2)ccn1 [Compound E-100] |
